# In patent US8581605B2 (priority 2006, dated 2013):
# Molecular target: αHL ion channel (Staphylococcus aureus, UniProt P09616)
# Assay type: biochemical
# Conditions: pH 7.4
# Sequence of αHL ion channel (P09616 27-319 limits assumed): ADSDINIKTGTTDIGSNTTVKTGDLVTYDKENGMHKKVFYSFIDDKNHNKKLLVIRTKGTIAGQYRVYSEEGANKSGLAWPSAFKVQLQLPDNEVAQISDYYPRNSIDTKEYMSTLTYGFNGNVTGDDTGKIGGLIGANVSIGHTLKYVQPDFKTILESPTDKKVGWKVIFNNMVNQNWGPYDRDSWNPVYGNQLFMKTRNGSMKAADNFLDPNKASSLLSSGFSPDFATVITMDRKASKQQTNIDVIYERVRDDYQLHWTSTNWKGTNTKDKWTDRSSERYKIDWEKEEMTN
substance,measurement,value
hepta-6-sulfato-β-cyclodextrin [s7βCD],reduction of conductance through the αHL when s7βCD is bound,~90%
